Data from US6455589B1, “Primary N-hydroxylamines” (The Regents of the University of California, priority 1999, dated 2002).
Like-named read-outs stand apart in the source and are kept apart here.

Tests used:
[1] = gerbils; cited from earlier work
[2] = Infarct volume following an ischemic event (Example 18); format: in vivo
Excerpt: The Ability of the Subject Hydroxylamines to Reduce Infarct Volume Following an Ischemic Event While PBN and the hydroxylamines are both effective at low doses, at high doses hydroxylamines gave the best protection and PBN was toxic.

[3] = system: mitochondrial preparations of cerebral cortex; details: relatively high concentrations; cited from earlier work
[4] = system: IMR90 cells; details: literature (5); cited from earlier work
[5] = in vivo; cited from earlier work
[6] = rats; cited from earlier work
[7] = Depression in body temperature; format: in vivo, mice and gerbils; details: 500 mg/kg
Procedure: Another undesirable systemic effect which has been observed in vivo with nitrone radical traps is a depression in body temperature. This toxicity can have serious health consequences and also can complicate diagnosis of other conditions. The subject hydroxylamines are administered to mice and gerbils at levels as high as 1000 mg/kg with no measurable temperature decrease. In contrast, PBN gives up to an 8° C. decrease in body temperature at a does of only 500 mg/kg.

[8] = system: creatine kinase (CK); test: Protection of creatine kinase against the effects of βAP fragments; format: biochemical
Excerpt: (§1) While the hydroxylamines and PBN each show the ability to protect GS and CK against the effects of βAP fragments, the hydroxyamines give complete protection and in fact can at least partly reverse the effects of oxidation. In contrast, PBN's effectiveness is quite limited as it asymptotically levels out at a substantially incomplete level of protection.

[9] = Lethality protection in aged gerbils from 10 min ischemia; format: in vivo; details: given 30 min before 10 min ischemia
Procedure: In this study, subject hydroxylamines and PBN are compared for their ability to impart lethality protection (% survived) in aged gerbils (18-24 months of age, n=12/group) from 10 min ischemia when given 30 min before ischemia.

[10] = in vivo
Procedure: C57BL/6J and DBA/2J male mice (35-40 g) are tested for the acute lethal effects of adriamycin and the prevention of acute lethality by pretreatment doses of subject hydroxylamines. Mice are injected i.p with either saline or subject hydroxylamines 30 minutes prior to administration of adriamycin.

[11] = rat, in vivo; cited from earlier work
[12] = system: IMR90 cells; test: Replicative life span of IMR90 cells (gain in PDLs, delay of senescence); format: cell-based, human; details: for Gain in PDLs: continuous cultivation, compared to control untreated cells
Procedure: Cultivating IMR90 cells in culture—Normal human […] fibroblasts (IMR90) cells were obtained from the Coriell Institute for Medical Research at a population doubling level (PDL) of 10.85. The PDLs were calculated as log2(D/Do), where D and Do are defined as the density of cells at the time of harvesting and seeding, respectively. Stock cultures were grown in 100 mm Corning tissue culture dishes containing 10 ml of Dulbecco's modified Eagle's medium (DMEM) supplemented with 10% (V/V) fetal bovine serum (Hyclone). Stock cultures were split once a week when near confluence. Cells were harvested by trypsinization for 5 min at 37° C., immediately collected in 5 ml complete DMEM, washed once with 5 ml complete DMEM and incubated for 10-15 min at 37° C. to allow the cells to recover.
To test the effect of hydroxylamines on replicative life span, IMR90 cells were seeded at 0.5×106 per 100 mm dish. N-hydroxylamines (N-t-butyl hydroxylamine, N-benzyl hydroxylamine, N-methyl hydroxyl- amine) were added either individually (final concentration 10 or 100 μM) or in a combination of all three N-hydroxylamines (30 μM each). The cultures were split after 7 days and seeded with fresh medium supplemented with the hydroxylamines described above. In other experiments the medium of the cultures was replaced after 3 days of seeding with fresh medium and with fresh N-hydroxylamines, the split was done as usual after 7 days from seeding. The effect of PBN on life span was tested as in (5).

[13] = cited from earlier work
[14] = Neuron loss following brain ischemia and reperfusion injury (Examples 14-16); parameters: species or system gerbils; details: in vivo
Procedure: The test procedure is that reported by W. Cao, J. M. Carney, A. Duchon, R. A. Floyd and M. Chevion as “Oxygen free radical involvement in ischemia and reperfusion injury to brain, Neuroscience Letters, 88 (1988), 233. In the experiments a test compound is administered to groups of six gerbils i.p. as a single dose 30 min before 5 min bilateral carotid occlusion. The density of neuronal nuclei in a 100 micron is measured. Two controls are present—controls which receive no test compound and controls which receive no test compound and no brain ischemia. The compounds of the invention show advantages as compared to the prior art compounds.
The general method described above is used but the test compounds are administered i.p. as a single dose 30 min after reperfusion following 5 min ischemia.
Comparing the Subject Hydroxylamines With PBN to Determine the Relative Effectiveness for Protection of Neuronal Loss when Administered i.v. 60 min after Reperfusion Onset Following 5 min Ischemia in Gerbils Using the General Test Method Described Above

[15] = system: glutamine synthetase (GS); test: Protection of glutamine synthetase against the effects of βAP fragments; format: biochemical
Excerpt: as §1

[16] = format: in vivo; details: 560 mg/kg single i.p. dose
Procedure: An important advantage of the subject hydroxylamines as compared to PBN, is its markedly diminished toxicity. Acute lethality in C57BL/6L mice is determined based upon varying sizes of single i.p. doses of hydoxylamine. […] The hydroxlamines show no toxicity at doses nearly twenty times as great.

[17] = 8-arm maze test 24 hours following 5 min ischemia; format: in vivo; details: 24 hours post 5 min ischemia, young adult gerbils
Procedure: In this experiment, young adult (3-4 months of age) gerbils are tested to determine their ability to perform an 8-arm maze test 24 hours following an ischemic event as described above As compared to nonischemic animals, when untreated they committed many more errors. PBN and subject hydroxyamines are administered to some of the test animals. Gerbils treated with high doses of the hydroxylamines have error levels indistinguishable from those of nonischemic animals.

[18] = 300 mg/kg, in combination with adriamycin

CC(C)(C)[N+]([O-])=Cc1ccccc1 [PBN, α-Phenyl-N-t-butyl nitrone]
Effect after oxidative damage from ischemia/reperfusion injury [1]: neuroprotective effect
Reduction of infarct volume / toxicity ([2]; high doses): toxic
Reduction of infarct volume ([2]; low doses): effective
Production of hydrogen peroxide [3]: reduces
Delay of senescence in IMR90 [4]: delays senescence
Age-related oxidative changes in the brains of old gerbils [5]: reverses
Effect after oxidative damage from ischemia/reperfusion injury [6]: neuroprotective effect
Decrease in body temperature [7]: ≤ 8 °C
Protection of CK against the effects of βAP fragments [8]: quite limited
Lethality protection (% survived) [9]: only partially effective
Sedation ([10]; 100 mg/kg, in combination with adriamycin): slight sedation
Combined toxicity (lethality) [10, 18]: 10-20%
Sedation [10, 18]: marked sedation
Shift in the adriamycin dose-effect curve ([10]; pretreatment): slight shift to the right
Mitochondrial decay in the liver of old rats [11]: reverses mitochondrial decay
Delay of senescence of IMR90 cells (in words) [12]: old solutions were more effective than fresh solutions
Gain in PDLs ([12]; 200 μM): 2.4 PDLs
Gain in PDLs ([12]; 800 μM): 14.8 PDLs
Concentration required to achieve nearly a similar gain in PDLs, relative to N-hydroxylamines ([12]; PBN 800 μM vs N-hydroxylamines 100 μM): 8 times higher
Senescence ([13]; normal mice): delays senescence
Senescence ([13]; senescence-accelerated mice): delays senescence
Neuronal density in control gerbils without brain injury [14]: Neither PBN nor the subject hydroxylamines have an effect
Protection of GS against the effects of βAP fragments [15]: quite limited
Acute toxicity [16]: significant toxicity
Errors in 8-arm maze test [17]: less effective
